Laboratory results from patent US11370773B1, “Inhibiting human integrin (alpha-4) (beta-7)” (Morphic Therapeutic, Inc., priority 2019, dated 2022).
pIC50: −log10 of the molar value.

What was measured:
α4β7 = target: T1, α4β7 (Homo sapiens, UniProt P13612+P26010); assay: Cell adhesion assay, RPMI8866 cells adhering to MAdCAM coated plates; type: cell-based; details: RPMI8866 cells on recombinant human MAdCAM coated plates; read-out: CA Assay (Example 7) IC50
T1 construct: α4β7 expressing cells (RPMI-8866); endogenous in cells; host or cells: RPMI 8866
T1 sequence (P13612 34-1032): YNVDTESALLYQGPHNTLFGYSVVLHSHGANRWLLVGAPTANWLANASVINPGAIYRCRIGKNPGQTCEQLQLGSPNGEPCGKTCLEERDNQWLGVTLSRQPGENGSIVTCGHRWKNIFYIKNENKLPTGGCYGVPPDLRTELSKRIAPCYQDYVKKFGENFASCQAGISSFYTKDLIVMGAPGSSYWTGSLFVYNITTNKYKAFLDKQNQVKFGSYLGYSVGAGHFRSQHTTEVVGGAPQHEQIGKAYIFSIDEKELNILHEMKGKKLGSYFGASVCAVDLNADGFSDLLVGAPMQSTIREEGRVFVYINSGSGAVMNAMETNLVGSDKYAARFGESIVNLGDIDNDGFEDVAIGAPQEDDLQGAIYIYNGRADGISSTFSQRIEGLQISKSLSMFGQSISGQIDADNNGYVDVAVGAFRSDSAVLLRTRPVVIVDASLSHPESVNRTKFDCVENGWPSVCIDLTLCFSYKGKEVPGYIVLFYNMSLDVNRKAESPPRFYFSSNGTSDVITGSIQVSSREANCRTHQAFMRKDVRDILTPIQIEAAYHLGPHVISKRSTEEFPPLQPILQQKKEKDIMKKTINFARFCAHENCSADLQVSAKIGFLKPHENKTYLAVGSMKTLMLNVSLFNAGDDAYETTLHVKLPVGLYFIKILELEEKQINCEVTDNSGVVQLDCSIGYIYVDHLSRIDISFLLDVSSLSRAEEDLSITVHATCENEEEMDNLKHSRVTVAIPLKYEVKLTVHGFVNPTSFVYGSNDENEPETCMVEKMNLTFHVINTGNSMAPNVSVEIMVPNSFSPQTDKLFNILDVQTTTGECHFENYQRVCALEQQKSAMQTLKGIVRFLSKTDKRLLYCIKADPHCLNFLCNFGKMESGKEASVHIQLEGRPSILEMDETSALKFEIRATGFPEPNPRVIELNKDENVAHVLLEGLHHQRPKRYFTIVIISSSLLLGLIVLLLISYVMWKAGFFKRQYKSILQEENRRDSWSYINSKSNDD
T1 sequence (P26010 20-798): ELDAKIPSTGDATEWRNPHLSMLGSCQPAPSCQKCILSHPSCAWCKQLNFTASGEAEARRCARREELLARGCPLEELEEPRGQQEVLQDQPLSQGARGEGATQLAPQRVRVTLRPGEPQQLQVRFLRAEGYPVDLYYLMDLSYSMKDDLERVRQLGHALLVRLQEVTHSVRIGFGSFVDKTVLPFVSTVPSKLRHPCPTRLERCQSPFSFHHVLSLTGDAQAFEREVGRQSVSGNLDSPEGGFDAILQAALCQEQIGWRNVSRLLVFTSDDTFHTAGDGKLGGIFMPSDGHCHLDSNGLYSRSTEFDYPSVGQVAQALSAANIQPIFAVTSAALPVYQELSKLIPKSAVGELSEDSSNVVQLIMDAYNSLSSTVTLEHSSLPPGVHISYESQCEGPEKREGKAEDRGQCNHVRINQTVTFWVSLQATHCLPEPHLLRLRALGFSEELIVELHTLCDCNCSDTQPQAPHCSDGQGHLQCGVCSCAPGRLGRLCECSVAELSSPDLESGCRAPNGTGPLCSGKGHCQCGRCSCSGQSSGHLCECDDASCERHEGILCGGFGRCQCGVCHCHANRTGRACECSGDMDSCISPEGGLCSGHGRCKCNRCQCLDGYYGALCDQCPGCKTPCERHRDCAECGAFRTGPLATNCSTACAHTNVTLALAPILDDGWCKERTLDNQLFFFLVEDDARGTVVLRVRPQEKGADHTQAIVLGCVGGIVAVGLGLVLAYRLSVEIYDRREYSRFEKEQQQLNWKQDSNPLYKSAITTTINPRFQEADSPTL
Procedure: (§1) Three in vitro assays were used to examine the α4β7 mechanistic process used by cells: 1) ligand:receptor affinity, 2) the avidity of those interactions on a cell's surface, and 3) how those interactions fare under an imposing force. In Example 5, a Fluorescence Polarization (FP) assay is used to measure compound activity through binding competition with the fluorescein-labeled peptide. In Example 6, the potency of compounds against α4β7 is measured in the cell-based ligand binding assay (LBA), using RPMI 8866 cells incubated with the compound samples in competition with soluble MAdCAM-1 ligand. In Example 7, activity of compounds is evaluated in a cell adhesion assay that mechanistically tests what occurs in vivo when trafficking cells utilize α4β7 to adhere to MAdCAM-1 expressing HEVs of the gut during the extravasation process. In the cell adhesion assay of Example 7, a MAdCAM1-(Fc) is coated on plastic, and α4β7 expressing cells (RPMI-8866) are allowed to adhere to the coated surface in the presence of the test compounds. Next, the force of washing with buffer is applied to cells thereby testing the strength of that adhesion. Unattached cells are removed and the remaining adherent cells are quantified.
Example 7 describes a cell adhesion assay.
To each well of a 96 well plate, 100 ug of recombinant human MAdCAM in 100 ul PBS is added and incubated overnight at 4° C. After incubation MAdCAM is removed by aspiration and 200 ul of PBS+1% BSA is added to block the plate for 2 hours at 37° C. and 5% CO2. During this incubation dilution curves of compound are made in 100% DMSO in 96 well V bottom plates. 1.75 ul of diluted compounds are then transferred to a new 96 well U bottom plate containing 20 ul of assay media (phosphate free DMEM+25 mM HEPES+1% BSA). To this an additional 155 ul of assay media is added with mixing by pipetting up and down. This mixture is allowed to incubate for 15 minutes at 37° C. and 5% CO2. After incubation 175 ul of assay media containing 2e6/mL RPMI8866 cells is added to compound containing wells without mixing and plate is allowed to incubate for another 15 minutes at 37° C. and 5% CO2. During this incubation MAdCAM coated plates are removed from incubator and washed twice with 200 ul PBS+0.1% BSA. […] This plate is then incubated at 37° C. and 5% CO2 for 1 hour. After incubation plates are washed twice with 200 ul and once with 50 ul of phenol free RPMI+1% BSA. A final 50 ul of phenol free RPMI+1% BSA is added to wells after last wash. Next 50 ul of Promega cell titer glow is added to the wells. Plate is incubated on shaker for 2 minutes at 200 RPM followed by another 8 minutes off shaker before having the luminescence read on a Biotek Citation 5 plate reader. Raw data is converted to % inhibition compared to bottom of curve and analyzed using a 4-parameter non linear curve in Prism to determine IC50 and IC90.

integrin α4β7 = target: T2, integrin α4β7 (Homo sapiens, UniProt P13612+P26010); assay: Fluorescence Polarization (FP) assay for α4β7 binding, competition with fluorescein-labeled peptide; details: 6.5 nM integrin α4β7, 3 nM fluorescein-labeled peptide, 2 mM MnCl2; read-out: FP Assay (Example 5) IC50
T2 sequence (P13612 34-977 limits assumed): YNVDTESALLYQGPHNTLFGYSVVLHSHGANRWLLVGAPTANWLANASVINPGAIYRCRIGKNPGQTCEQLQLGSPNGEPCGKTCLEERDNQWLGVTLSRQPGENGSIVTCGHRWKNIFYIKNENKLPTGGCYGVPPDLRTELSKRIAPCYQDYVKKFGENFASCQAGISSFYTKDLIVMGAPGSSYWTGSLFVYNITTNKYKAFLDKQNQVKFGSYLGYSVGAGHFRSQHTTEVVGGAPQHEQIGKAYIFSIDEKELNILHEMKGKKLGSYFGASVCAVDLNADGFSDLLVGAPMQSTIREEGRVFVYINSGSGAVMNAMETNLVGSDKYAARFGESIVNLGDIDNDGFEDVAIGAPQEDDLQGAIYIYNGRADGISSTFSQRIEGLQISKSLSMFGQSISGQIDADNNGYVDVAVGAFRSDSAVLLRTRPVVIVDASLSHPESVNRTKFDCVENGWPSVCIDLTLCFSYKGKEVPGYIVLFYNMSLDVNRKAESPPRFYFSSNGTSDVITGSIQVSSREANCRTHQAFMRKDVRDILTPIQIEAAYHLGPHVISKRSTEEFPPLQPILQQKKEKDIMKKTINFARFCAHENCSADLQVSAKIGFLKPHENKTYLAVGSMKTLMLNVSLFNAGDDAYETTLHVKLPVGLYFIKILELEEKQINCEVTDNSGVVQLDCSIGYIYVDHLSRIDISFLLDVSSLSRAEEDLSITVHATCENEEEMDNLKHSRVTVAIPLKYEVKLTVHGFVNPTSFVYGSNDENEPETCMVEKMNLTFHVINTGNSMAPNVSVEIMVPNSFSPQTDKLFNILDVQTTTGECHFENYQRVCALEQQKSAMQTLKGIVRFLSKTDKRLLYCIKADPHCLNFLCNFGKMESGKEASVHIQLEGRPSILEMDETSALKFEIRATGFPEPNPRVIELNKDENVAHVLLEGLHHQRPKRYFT
T2 sequence (P26010 20-723 limits assumed): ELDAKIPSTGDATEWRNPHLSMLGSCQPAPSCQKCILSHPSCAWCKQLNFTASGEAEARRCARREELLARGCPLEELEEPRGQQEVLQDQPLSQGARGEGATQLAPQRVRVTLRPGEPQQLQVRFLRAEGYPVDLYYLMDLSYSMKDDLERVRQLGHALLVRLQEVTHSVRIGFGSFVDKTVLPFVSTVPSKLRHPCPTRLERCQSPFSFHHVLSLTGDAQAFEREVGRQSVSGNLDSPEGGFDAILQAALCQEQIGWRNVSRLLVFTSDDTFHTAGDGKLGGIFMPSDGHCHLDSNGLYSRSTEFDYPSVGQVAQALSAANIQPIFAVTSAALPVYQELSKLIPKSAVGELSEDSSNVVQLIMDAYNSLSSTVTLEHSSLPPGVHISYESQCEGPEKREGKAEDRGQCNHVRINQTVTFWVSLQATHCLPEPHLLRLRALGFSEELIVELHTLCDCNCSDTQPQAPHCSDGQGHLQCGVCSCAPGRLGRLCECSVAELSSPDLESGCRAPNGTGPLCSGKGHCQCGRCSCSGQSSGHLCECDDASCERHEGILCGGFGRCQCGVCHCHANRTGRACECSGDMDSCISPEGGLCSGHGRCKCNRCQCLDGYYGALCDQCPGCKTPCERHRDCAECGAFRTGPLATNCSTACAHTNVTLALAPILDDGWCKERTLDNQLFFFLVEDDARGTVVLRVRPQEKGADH
Procedure: as §1
Fluorescence Polarization (FP) assays were used to measure compound activity through binding competition with the fluorescein-labeled peptide […]{Lys(FITC)}. In the assay, 6.5 nM of integrin α4β7 was incubated with the test compound in 2 mM manganese chloride, 0.1 mM calcium chloride, 20 mM HEPES buffer at pH 7.3, 150 mM sodium chloride, 0.01% Triton X-100, 2% DMSO, and 3 nM of the fluorescein-labeled peptide. Running the assays in 384-well plates, the integrin protein was pre-incubated with the test compounds for 15 minutes at 22° C. before the fluorescein-labeled peptide was added. After the fluorescein-labeled peptide was added, the assay was incubated at 22° C. for 1 hour and fluorescence polarization was measured. IC50 values were determined by non-linear regression, four-parameter curve fitting.

| pIC50 (α4β7) | pIC50 (integrin α4β7) | Compound |
| --- | --- | --- |
| > 8.30 |  | Cc1cc(-c2c(C)cccc2C)cc([C@H](CC(=O)O)NC(=O)[C@H](CC(C)C)n2cc(CCN3CC[C@@H](F)C3)cc(F)c2=O)c1F (single isomer, unassigned) [AU-P2] |
|  | ≥ 8.00 | Cc1cc(C)c(-c2cc(C)c(F)c([C@H](CC(=O)O)NC(=O)C(CC(C)C)n3cc(CCN(C)C)c(C(F)(F)F)cc3=O)c2)c(C)c1 (single isomer, unassigned) [AC-P2] |
